Source: US6787125B1, “Compound screening method” (priority 1999, dated 2004)

What was measured:
[1] = system: C. elegans pharynx; assay: Pharynx pumping assay (calcein-AM), strain not specified: dilution series, insecticides, Tocris library; format: in vivo; conditions: for effect of compounds of known insecticidal activity on the pharynx pumping rate: FIGS. 18 to 21; for effect on pharynx pumping: general statement
Protocol: (§1) The pumping rate of the pharynx is measured indirectly by adding a marker molecule precursor such as calcein-AM to the medium and measuring the formation of marker dye in the C. elegans gut. Calcein-AM is cleaved by esterases present in the C. elegans gut to release calcein, which is a fluorescent molecule. […] Therefore by measuring the accumulation of calcein in the nematode gut, detectable by fluorescence, it is possible to determine the pumping rate of the pharynx.
(§2) To perform the pharynx pumping screen with calcein-AM, a concentration of between 1 and 100 μM calcein-AM is added into the medium. Preferably 5 to 10 μM calcein-AM is used. Fluorescence is measured using a multi-well plate reader (Victor2, Wallac Oy, Finland) with following settings: Ex/Em=485/530.
To determine the sensitivity of the pharynx pumping assay, dilution series were made for some chemical substances. These include the chemicals clomipramine, tamoxifen, BP554, pimazide and thapsigargin. A concentration range was made from less than 1 μM up to 100 μM, and the pumping assay was repeated as described in previous examples.

[2] = system: mutant C. elegans strain with a constitutively pumping pharynx; assay: Pharynx pumping assay (calcein-AM fluorescence), screen for inhibitors; format: in vivo; conditions: compounds and worms incubated approximately 1 hour, then calcein-AM, one further hour
Description: Depending on the specific assay which it is desired to perform, different C. elegans strains can be used. Screens to select for chemical substances inhibiting the pumping rate of the C. elegans pharynx are generally performed with mutant C. elegans strains which have a constitutively pumping pharynx. Wild-type worms can also be used in this screen, but the mutants worms are preferred. […] The selected mutant C. elegans with the constitutively pumping pharynx pumps medium into the gut at a constant rate and reduction/rescue of this phenotype can easily be scored, which facilitates the detection and selection of chemical substances.
as §1, §2
160 well known drugs selected from the pharmacopoeia were used in a screen to test the performance of the pharynx pumping method. The drugs tested belong to a variety of categories, which included analgesics, antidiabetics, antiarrythmics, calcium channel blockers, diuretics, cholinesterase inhibitors, proton pump inhibitors and antidepressants.
The drugs were randomly distributed over the wells of two 96-well multi-well plates. The pumping rate of the C. elegans pharynx was measured using calcein-AM as described in Example 2.
In a first assay, the substrate calcein-AM was added to the medium at the same time as the worms and the compounds. The fluorescence was measured after approximately one hour.
In a variation of this protocol, compounds and worms are added to the medium first and incubated for approximately 1 hour. After this incubation period that allowed for the chemical substances to activate or to inhibit the pumping rate of the pharynx, calcein-AM was added. The plates where then further incubated for one hour prior to fluorescence measurement in the microtiter plate reader.

[3] = system: wild-type worms; assay: Movement assay (autofluorescence), wild-type worms; format: in vivo, C. elegans; conditions: for effect on movement of wild-type worms, compound alone: FIG. 8, 100% represents normal movement of wild-type worms
Protocol: Advanced multi-well plate readers are able to detect sub-regions of the wells of multi-well plates. By using these plate readers it is possible to take measurements in selected areas of the surface of the wells of the multi-well plates. If the area of measurement is centralized, so that only the middle of the well is measured, a difference in nematode autofluorescence (fluorescence which occurs in the absence of any external marker molecule) or optical density can be observed in the wells containing nematodes that move normally as compared to wells containing nematodes that are defective for movement. For the wells containing the nematodes that move normally, a low level of autofluorescence or optical density will be observed, whilst a high level of autofluorescence or optical density can be observed in the wells that contain the nematodes that are defective in movement. Optical density is measured using a variation of the platelet aggregation assay, which is well known in the art. Using the MRX revelation device from Dynex (USA), optical density can be measured at multiple points per well, showing the precipitation pattern of the nematodes.
This is because the mutant is mutated in the acetylcholine esterases, resulting in high concentrations of acetylcholine in the synapses. Neostigmine, a well known acetylcholine esterase inhibitor, was added to wild-type worms distributed over the wells of a multi-well plate and submitted to the movement assay after approximately 2 hours.
As receptor antagonist, hexamethonium will also result in a decrease of movement, as it prevents proper signalling.
In another experiment, wild-type worms were contacted with inhibitory concentrations of neostigmine to prevent movement. After a small incubation period, various concentrations of hexamethonium were added and the wells were submitted to the movement assay (measurement of autofluorescence). […] At very high concentrations of hexamethonium (although lower than the concentrations shown in last panel) a toxic effect is observed, resulting in a decrease in movement. This toxic effect is probably due to the presence of high concentrations of both neostigmine and hexamethonium.

[4] = system: ace-1; ace-2 double mutant; assay: Movement assay, ace-1; ace-2 double mutant; format: in vivo, C. elegans; conditions: increasing concentrations of hexamethonium, absence of neostigmine; compared with the neostigmine experiment
Protocol: An analogous experiment was performed with the ace-1; ace-2 double mutant. In this experiment, increasing concentrations of hexamethonium were added to the wells in the absence of neostigmine.

[5] = system: C. elegans pharynx; conditions: Kerr et al.; cited from earlier work
[6] = concentration range from less than 1 μM up to 100 μM

## c1ccc(-c2cnc(-c3ccccc3)o2)cc1 [2,5-diphenyloxazole]
[1]; both in wild-type worms and in constitutive pumping worms
  effect on pumping rate of the pharynx: inhibitor of the pumping rate of the pharynx

## CN1[C@@H]2CC[C@H]1C[C@@H](OC(=O)C(CO)c1ccccc1)C2 (stereo partly shown) [Atropine]
[2]
  activity on the pharynx pumping rate found with the variation of the protocol: detection

## c1ccc(N2CCN(CCCOc3ccc4c(c3)OCO4)CC2)cc1 [BP554]
[1]; [6]
  effect on pharynx pumping rate, dose-response curve: inhibitors

## CN(C)CCCN1c2ccccc2CCc2ccc(Cl)cc21 [Clomipramine]
[1]; [6]
  effect on pharynx pumping rate, dose-response curve: enhancer

## C[S+](C)[O-] [DMSO]
[1]; solvent, at higher concentrations (FIG. 5)
  toxic effect in pharynx pumping dose-response curve: toxic effect

## ClC1=C(Cl)[C@]2(Cl)[C@@H]3[C@@H]4C[C@@H]([C@H]5O[C@@H]45)[C@@H]3[C@@]1(Cl)C2(Cl)Cl [Dieldrin]
[1]
  effect of compounds of known insecticidal activity on the pharynx pumping rate: reduction in the pharynx pumping rate

## CN(C)CCC=C1c2ccccc2COc2ccccc21 [Doxepin]
[1]
  effect on pharynx pumping: enhancer of pharynx pumping

## CN1[C@@H]2CC[C@H]1C[C@@H](OC(=O)[C@H](CO)c1ccccc1)C2 [L-Hyoscyamine]
[2]
  activity on the pharynx pumping rate found with the variation of the protocol: detection

## COP(=O)(OC)C(O)C(Cl)(Cl)Cl (stereo not shown) [Metrifonate]
[2]
  activity on the pharynx pumping rate found with the variation of the protocol: detection

## C=C(C)[C@H]1Cc2c(ccc3c2O[C@@H]2COc4cc(OC)c(OC)cc4[C@@H]2C3=O)O1 [Rotenone]
[1]
  effect of compounds of known insecticidal activity on the pharynx pumping rate: reduction in the pharynx pumping rate

## CC/C(=C(\c1ccccc1)c1ccc(OCCN(C)C)cc1)c1ccccc1 [Tamoxifen]
[1]; [6]
  effect on pharynx pumping rate, dose-response curve: inhibitors

## C/C=C(/C)C(=O)O[C@H]1C(C)=C2[C@H]([C@@H]1OC(=O)CCCCCCC)[C@@](C)(OC(C)=O)C[C@H](OC(=O)CCC)[C@@]1(O)[C@H]2OC(=O)[C@@]1(C)O [Thapsigargin]
[3]; observation, method not stated
  effect on movement: decreased movement
[1]; at low concentration
  effect on pharynx pumping rate, dose-response curve: enhancement of the pumping
[1]; [6]
  effect on pharynx pumping rate, dose-response curve: decrease of the pumping rate
[1]
  effect on pharynx pumping: decrease in the pharynx pumping rate

## N=C(N)S/C=C\C(=O)O [ZAPA]
[2]
  activity on the pharynx pumping rate found with the variation of the protocol: detection

## C[N+](C)(C)CCCCCC[N+](C)(C)C [hexamethonium, Hexamethonium]
[3]
  effect on movement of wild-type worms, compound alone: represses the movement of wild-type worms, but significant less than neostigmine
[3]; increasing concentrations of hexamethonium
  movement of wild-type worms in presence of inhibitory concentrations of neostigmine: more movement
[3]; very high concentrations of hexamethonium together with neostigmine
  toxic effect in movement assay: toxic effect
[4]
  movement of ace-1; ace-2 double mutant: comparable

## CN(C)C(=O)Oc1cccc([N+](C)(C)C)c1 [neostigmine, Neostigmine]
[3]
  effect on movement of wild-type worms, compound alone: clear decrease in movement

## NCCc1c[nH]c2ccc(O)cc12 [serotonin]
[5]
  effect on pumping, seen as fluorescence of GFP-calmodulin: enhancers of pumping

## Ivermectin
[1]
  effect of compounds of known insecticidal activity on the pharynx pumping rate: reduction in the pharynx pumping rate
[5]
  effect on pumping, seen as fluorescence of GFP-calmodulin: inhibitors of pumping

## Picrotoxin
[1]
  effect of compounds of known insecticidal activity on the pharynx pumping rate: reduction in the pharynx pumping rate
